“Also recorded” adds a separate entry of the source. Where no end group is shown, it is not given here.
Experiments:
[1] = tested on: PP2Ac–Cyk4 interaction in HeLa cells; experiment: Co-immunoprecipitation of FLAG-Cyk4 with PP2Ac in synchronized cells; type: cell-based; details: 200 nM for 30 min; HeLa cells with FLAG-Cyk4 and V5-CIP2A, synchronized with monastrol, 0–90 min after its removal
Procedure: Thirty-six hours after HeLa cells were transfected with FLAG-Cyk4 and V5-CIP2A expression vectors, the transfected cells were arrested at […] with 100 μM monastrol for 14 h, followed by incubation with 200 nM BI-2536 or solvent control for 30 min. Cells were collected at the indicated time points after removal of monastrol to allow cell cycle progression. The interaction between FLAG-Cyk4 and PP2Ac were determined by co-immunoprecipitation using antibody that specifically recognizes FLAG-tag. PP2Ac associated with FLAG-Cyk4 and from cell lysate input were determined by western blot using customer-made antibody against PP2Ac.

B′γ1 = molecular target: T1, B′γ1 (Homo sapiens, UniProt Q13362); experiment: Isothermal titration calorimetry of synthetic peptides; type: binding; details: for interaction with B′γ1 by ITC (in words): phospho-peptides with pS/pT at position 6 and negatively charged residues at positions 2, 7 and 8; for Kd: ITC, 1 mM peptide titrated to 20–50 μM B′γ1, 20 mM HEPES pH 7.5, 200 mM NaCl
T1 construct: Expression and purification of full-length PP2A Aα, Cα, B′γ1 and PR70 (B″ family); made in house
T1 sequence (Q13362 whole entry, looked up): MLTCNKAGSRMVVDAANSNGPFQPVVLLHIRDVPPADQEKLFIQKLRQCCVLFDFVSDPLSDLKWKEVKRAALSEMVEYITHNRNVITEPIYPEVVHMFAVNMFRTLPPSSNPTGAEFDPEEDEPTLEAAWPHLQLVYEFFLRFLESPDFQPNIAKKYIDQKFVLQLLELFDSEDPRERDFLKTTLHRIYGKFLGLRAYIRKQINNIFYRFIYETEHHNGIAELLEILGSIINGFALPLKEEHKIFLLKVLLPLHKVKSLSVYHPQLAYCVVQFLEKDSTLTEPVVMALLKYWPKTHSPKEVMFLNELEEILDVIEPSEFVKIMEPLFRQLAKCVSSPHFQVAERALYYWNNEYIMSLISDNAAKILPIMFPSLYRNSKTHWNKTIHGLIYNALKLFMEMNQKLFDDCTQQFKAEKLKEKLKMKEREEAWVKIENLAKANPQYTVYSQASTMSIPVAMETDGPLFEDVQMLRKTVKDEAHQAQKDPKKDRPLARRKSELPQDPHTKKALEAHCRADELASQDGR
Procedure: The binding affinities between B′γ1 and synthetic CIP2A and Cyk4 peptides (GenScript, Piscataway, NJ, USA) were determined by titrating 1 mM of peptides to 20–50 μM B′γ1 in 20 mM HEPES (pH 7.5), 200 mM NaCl using VP-ITC microcalorimeter (MicroCal, Malvern Instrument, Malvern, UK). The data were fitted with Origin 7.0 (MicroCal, Malvern Instrument, Malvern, UK) to calculate the equilibrium association constant.

Row | Compound | interaction with B′γ1 by ITC (in words) (B′γ1) | Kd (B′γ1) | further results
1 | CC[C@@H]1C(=O)N(C)c2cnc(Nc3ccc(C(=O)NC4CCN(C)CC4)cc3OC)nc2N1C1CCCC1 [BI-2536] | – | – | effect on interaction between PP2Ac and Cyk4 (co-IP) [1]: blocked and delayed the interaction between PP2Ac and Cyk4
2 | LEPIRpSEE | no binding; also recorded: no interaction could be detected | – | –
3 | LEPIRpTEE | no binding; also recorded: no interaction could be detected | – | –
4 | LEPVRpSEE | no binding; also recorded: no interaction could be detected | – | –
5 | NKRLSTIDEEGS [Cyk4 peptide S149E] | – | 1.59 µM | –
6 | NRKLESVAEEHE [CIP2A peptide] | – | 7.2 µM | –

— article PMC5586252, “PP2A-B′ holoenzyme substrate recognition, regulation and role in cytokinesis” (Cell Discovery, 2017)
